This note sets out measurements from ChEMBL document CHEMBL5370604, “Identification of Micrococcin P2-Derivatives as Antibiotic Candidates against Two Gram-Positive Pathogens” (J Med Chem, 2023).

≈ marks a conversion by molar mass, not a printed value. Calls of active or inactive are those of the source. No cut-off for these calls is given here.

The test system of data set [1] is Staphylococcus aureus. The experiment in a line: Antibacterial activity against Staphylococcus aureus ATCC 4330 assessed as inhibition of bacterial growth measured after 16 to 24 hrs by CLSI based broth dilution method. It counts as functional. The following applies: time 16-24 hrs.
In data set [2] the test system is Staphylococcus aureus. The data set is described as follows: Antibacterial activity against methicillin-resistant Staphylococcus aureus assessed as inhibition of bacterial growth measured after 16 to 24 hrs by CLSI based broth dilution method. It is filed as functional. As to conditions: time 16-24 hrs.
Data set [3] has as its system Clostridioides difficile. The experiment in a line: Antibacterial activity against Clostridioides difficile ATCC 43255 assessed as inhibition of bacterial growth measured after 24 hrs by CLSI based broth dilution method. It is filed as functional.
Data set [4] in a line: Aqueous kinetic solubility of the compound at pH 7.4 incubated for 2 hrs by UPLC-MS analysis. It counts as physicochemical. The following applies: read-out: Kinetic_solubility.
Data set [5] is described as follows: Effective permeability of the compound at pH 5.5 at 25 uM incubated for 5 hrs by skin PAMPA analysis. The following applies: pH 5.5, 5 h. It is filed as ADME.
For data set [6], the system named is Staphylococcus aureus. The experiment in a line: In vivo antibacterial activity against methicillin-resistant Staphylococcus aureus KCCM 40511 ATCC 33593 infected in soft-skin tissue BALB/c mouse infection model assessed as reduction in total number of bacteria in wound area treated as ointment administered twice at 6 and 12 hrs and measured after 24 hrs relative to mupirocin. It is filed as functional.

Data set [7] is described as follows: Effective permeability of the compound at pH 7.4 at 25 uM incubated for 5 hrs by skin PAMPA analysis. It counts as ADME. The following applies: pH 7.4, 5 h.
Data set [8] has as its system Staphylococcus aureus. The data set is described as follows: Antibacterial activity against clinical isolate methicillin-resistant Staphylococcus aureus assessed as log reduction in CFU/ml at 16 times of MIC measured after 24 hrs by time killing analysis. It counts as functional.
Data set [9] relates to Clostridioides difficile. The data set is described as follows: Antibacterial activity against Clostridioides difficile RT027/ST1/A+B+CDT+ assessed as inhibition of bacterial growth measured after 24 hrs by CLSI based broth dilution method. It is filed as functional.
A short description of data set [10]: Toxicity in colitis-induced C57BL/6J mouse infected with Clostridioides difficile ribotype 027 assessed as increase in Klebsiella proportion in gut at 30 mg/kg, po qd pretreated with clindamycin followed by infected with […] and measured on day 20 post treatment by RNA sequencing analysis (reference value: 0%). It counts as organism-based. As to conditions: in vivo, 480 h, time 20 day.

Data set [11] can be described thus: Toxicity in colitis-induced C57BL/6J mouse infected with Clostridioides difficile ribotype 027 assessed as increase in Escherichia proportion in gut at 30 mg/kg, po qd pretreated with clindamycin followed by infected with […] and measured on day 20 post treatment by RNA sequencing analysis (reference value: 0%). It counts as organism-based. The following applies: in vivo, 480 h, time 20 day.

Data set [12] relates to Clostridioides difficile. The data set is described as follows: Antibacterial activity against Clostridioides difficile RT017/ST37/A-B+ assessed as inhibition of bacterial growth measured after 24 hrs by CLSI based broth dilution method. It is filed as functional.
In data set [13] the test system is Clostridioides difficile. The experiment in a line: Antibacterial activity against Clostridioides difficile ribotype 027 infected in colitis induced C57BL/6J mouse assessed as survival rate at 30 mg/kg, po qd pretreated with clindamycin followed by […] infection and compound addition measured on day 5. It is filed as functional. As to conditions: ribotype 027, 120 h, time 5 day.

Data set [14] is described as follows: Toxicity in colitis-induced C57BL/6J mouse infected with Clostridioides difficile ribotype 027 assessed as increase in Klebsiella proportion in gut at 30 mg/kg, po qd pretreated with clindamycin followed by infected with […] and measured on day 6 post treatment by RNA sequencing analysis (reference value: 0%). It is filed as organism-based. The following applies: in vivo, 144 h, time 6 day.

In data set [15] the test system is Clostridioides difficile. The data set is described as follows: Antibacterial activity against Clostridioides difficile RT018/ST17/A+B+ assessed as inhibition of bacterial growth measured after 24 hrs by CLSI based broth dilution method. It is filed as functional.
The test system of data set [16] is Clostridioides difficile. The experiment in a line: Antibacterial activity against Clostridioides difficile RT293/ST129/A+B+ assessed as inhibition of bacterial growth measured after 24 hrs by CLSI based broth dilution method. It is filed as functional.
The test system of data set [17] is Clostridioides difficile. The data set is described as follows: Antibacterial activity against Clostridioides difficile NT/ST221/A+B+CDT+ assessed as inhibition of bacterial growth measured after 24 hrs by CLSI based broth dilution method. It is filed as functional.
Data set [18] relates to Clostridioides difficile. The data set is described as follows: Antibacterial activity against Clostridioides difficile RT001/ST3/A+B+ assessed as inhibition of bacterial growth measured after 24 hrs by CLSI based broth dilution method. It counts as functional.
The subject of data set [19] is Clostridioides difficile. The experiment in a line: Antibacterial activity against Clostridioides difficile RT015/ST35/A+B+ assessed as inhibition of bacterial growth measured after 24 hrs by CLSI based broth dilution method. It is filed as functional.
The test system of data set [20] is Clostridioides difficile. The experiment in a line: Antibacterial activity against Clostridioides difficile RT014/ST14/A+B+ assessed as inhibition of bacterial growth measured after 24 hrs by CLSI based broth dilution method. It is filed as functional.
The test system of data set [21] is Clostridioides difficile. The experiment in a line: Antibacterial activity against Clostridioides difficile RT012/ST54/A+B+ assessed as inhibition of bacterial growth measured after 24 hrs by CLSI based broth dilution method. It is filed as functional.
The nature of data set [22]: Toxicity in colitis-induced C57BL/6J mouse infected with Clostridioides difficile ribotype 027 assessed as increase in Enterococcus proportion in gut at 30 mg/kg, po qd pretreated with clindamycin followed by infected with […] and measured on day 20 post treatment by RNA sequencing analysis (reference value: 0%). It counts as organism-based. The following applies: in vivo, 480 h, time 20 day.

Data set [23] concerns Clostridioides difficile. The experiment in a line: Antibacterial activity against Clostridioides difficile RT078/ST11/A+B+CDT+ assessed as inhibition of bacterial growth measured after 24 hrs by CLSI based broth dilution method. It is filed as functional.
Data set [24] is described as follows: Toxicity in colitis-induced C57BL/6J mouse infected with Clostridioides difficile ribotype 027 assessed as increase in Enterococcus proportion in gut at 30 mg/kg, po qd pretreated with clindamycin followed by infected with […] and measured on day 6 post treatment by RNA sequencing analysis (reference value: 0%). It is filed as organism-based. The following applies: in vivo, 144 h, time 6 day.

Data set [25] relates to Clostridioides difficile. The data set is described as follows: Antibacterial activity against Clostridioides difficile ribotype 027 infected in colitis induced C57BL/6J mouse assessed as increase in survival rate without recurrence at 30 mg/kg, po qd pretreated with clindamycin followed by […] infection and compound addition measured on day 5. It counts as functional. As to conditions: time 5 day.

The test system of data set [26] is Clostridioides difficile. The experiment in a line: Antibacterial activity against Clostridioides difficile ribotype 027 infected in colitis induced C57BL/6J mouse assessed as increase in survival rate without recurrence at 30 mg/kg, po qd pretreated with clindamycin followed by […] infection and compound addition measured on day 15 to day 19. It counts as functional, organism-based. The following applies: time 15-19 day.

Data set [27] deals with Clostridioides difficile. The experiment in a line: Antibacterial activity against Clostridioides difficile RT130/ST5/A+B+CDT+ assessed as inhibition of bacterial growth measured after 24 hrs by CLSI based broth dilution method. It is filed as functional.
A short description of data set [28]: Toxicity in colitis-induced C57BL/6J mouse infected with Clostridioides difficile ribotype 027 assessed as increase in Escherichia proportion in gut at 30 mg/kg, po qd pretreated with clindamycin followed by infected with […] and measured on day 6 post treatment by RNA sequencing analysis (reference value: 0%). It is filed as organism-based. As to conditions: in vivo, 144 h, time 6 day.

For data set [29], the system named is Clostridioides difficile. The experiment in a line: Antibacterial activity against Clostridioides difficile RT002/ST8/A+B+ assessed as inhibition of bacterial growth measured after 24 hrs by CLSI based broth dilution method. It counts as functional.
The test system of data set [30] is Clostridioides difficile. The data set is described as follows: Antibacterial activity against Clostridioides difficile NT/ST67/A+B+CDT+ assessed as inhibition of bacterial growth measured after 24 hrs by CLSI based broth dilution method. It is filed as functional.

Consider `C/C=C(\NC(=O)c1csc(-c2csc(-c3ccc4c(n3)-c3csc(n3)[C@H]([C@@H](C)O)NC(=O)c3csc(n3)[C@H](C(C)C)NC(=O)c3csc(n3)/C(=C/C)NC(=O)[C@H]([C@@H](C)O)NC(=O)c3csc-4n3)n2)n1)C(=O)NCCN1CCN(C(C)C)CC1`, for which the MIC in the data set with Staphylococcus aureus [1] and with Clostridioides difficile [3] was 0.5 µg/mL (≈ 0.403 µM) in each case. Besides, the MIC50 in the data set with Staphylococcus aureus [2] amounted to 2 µg/mL (≈ 1.61 µM). The MIC90 in the data set on Staphylococcus aureus [2] was determined as 4 µg/mL (≈ 3.22 µM). In addition, the solubility kinetic at 2 h in data set [4] came to 150 µg/mL (≈ 121 µM). The Peff entry in [5] and in data set [7] was “Impermeable” in each case. In the data set with Staphylococcus aureus [6], the “fold change (FC)” value is given as 1000. Further, the Activity entry in the data set on Staphylococcus aureus [8] is recorded as “>=3 log10CFU/ml”.

For the compound `CN[C@H](CC(C)C)C(=O)N[C@H]1C(=O)N[C@@H](CC(N)=O)C(=O)N[C@H]2C(=O)N[C@H]3C(=O)N[C@H](C(=O)N[C@H](C(=O)O)c4cc(O)cc(O)c4-c4cc3ccc4O)[C@H](O)c3ccc(c(Cl)c3)Oc3cc2cc(c3O[C@@H]2O[C@H](CO)[C@@H](O)[C@H](O)[C@H]2O[C@H]2C[C@](C)(N)[C@H](O)[C@H](C)O2)Oc2ccc(cc2Cl)[C@H]1O` [VANCOMYCIN], the MIC in the data set on Clostridioides difficile [9] is 1 µg/mL (≈ 0.69 µM); in the data set with Clostridioides difficile [12] it was 0.5 µg/mL (≈ 0.345 µM); in the data set on Clostridioides difficile [15] it was 1 µg/mL (≈ 0.69 µM); in the data set on Clostridioides difficile [16], 1 µg/mL (≈ 0.69 µM); with Clostridioides difficile [17], 2 µg/mL (≈ 1.38 µM); in the data set on Clostridioides difficile [18], 1 µg/mL (≈ 0.69 µM). Further, the MIC with Clostridioides difficile [3] worked out at 1 µg/mL (≈ 0.69 µM); in the data set on Clostridioides difficile [19], 0.5 µg/mL (≈ 0.345 µM); in the data set with Clostridioides difficile [20], 1 µg/mL (≈ 0.69 µM); with Clostridioides difficile [21], 1 µg/mL (≈ 0.69 µM); in the data set on Clostridioides difficile [23], 1 µg/mL (≈ 0.69 µM); with Clostridioides difficile [27], 1 µg/mL (≈ 0.69 µM). Further, the minimal inhibitory concentration (MIC) with Clostridioides difficile [29] was determined as 1 µg/mL (≈ 0.69 µM); in the data set on Clostridioides difficile [30], 2 µg/mL (≈ 1.38 µM). The Activity in data set [10] worked out at 1.39%; in data set [11], 5.22%; in data set [14], 8.78%; in data set [22], 21.53%; in data set [24], 0%; with Clostridioides difficile [25] it was 30%. For the same compound, the Activity in data set [28] stood at 24.55%. For the same compound, the survival at 30 mg/kg in the data set on Clostridioides difficile [13] was 40%. For the same compound, the outcome with Clostridioides difficile [26] was inactive.
